The source of these data is EP4729529A1, “PREPARATION OF PEPTIDE INHIBITOR OF INTERLEUKIN-23 RECEPTOR AND USE THEREOF” (Xizang Haisco Pharmaceutical Co., Ltd., priority 2023, dated 2024).

Positions of bridges follow the written chain, without caps; N, C: chain ends. Non-standard residues stand in square brackets, D forms with d. Residues, ends and D or L forms follow the SMILES beside them. Phe(4-OC2H4NH2,2,3-(CH2)3) = NCCOc1ccc(C[C@H](N)C(=O)O)c2c1CCC2; Trp(7-Me) = Cc1cccc2c(C[C@H](N)C(=O)O)c[nH]c12; 2Nal = N[C@@H](Cc1ccc2ccccc2c1)C(=O)O; 3Pal = N[C@@H](Cc1cccnc1)C(=O)O; Pen = CC(C)(S)[C@H](N)C(=O)O; Thp = NC1(C(=O)O)CCOCC1; Sar = CNCC(=O)O

One data set deals with T1, IL-23R (Homo sapiens, UniProt Q5VWK5).
T1 construct: host or cells: HEK-blue IL23 reporter gene cell line
T1 sequence (Q5VWK5 24-629): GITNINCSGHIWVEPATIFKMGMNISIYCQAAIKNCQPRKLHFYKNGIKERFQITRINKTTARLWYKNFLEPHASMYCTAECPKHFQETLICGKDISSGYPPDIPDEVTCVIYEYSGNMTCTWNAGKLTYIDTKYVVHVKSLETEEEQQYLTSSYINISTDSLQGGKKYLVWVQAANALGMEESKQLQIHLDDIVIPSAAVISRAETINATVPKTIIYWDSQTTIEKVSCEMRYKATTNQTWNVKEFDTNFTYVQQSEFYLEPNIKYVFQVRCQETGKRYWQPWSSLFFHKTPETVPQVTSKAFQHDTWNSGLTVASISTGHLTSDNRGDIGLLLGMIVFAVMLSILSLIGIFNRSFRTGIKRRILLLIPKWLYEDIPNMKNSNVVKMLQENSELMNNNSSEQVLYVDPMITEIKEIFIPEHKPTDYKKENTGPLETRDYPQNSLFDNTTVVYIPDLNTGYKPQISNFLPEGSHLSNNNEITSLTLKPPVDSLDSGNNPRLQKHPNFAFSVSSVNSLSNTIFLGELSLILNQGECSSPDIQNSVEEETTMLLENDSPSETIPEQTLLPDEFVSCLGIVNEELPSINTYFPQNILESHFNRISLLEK
Put plainly: IL-23R reporter gene assay (HEK-blue IL23 reporter gene cell line, rhIL23 stimulation). The format is cell-based. The note with it: Inhibition of IL-23R, rhIL23 1 ng/mL, 24 hours. The essentials:
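HEK-blue IL23 reporter cells (5000/well, plated overnight) preincubated 0.5 h with compound, then stimulated 24 h at 37°C with rhIL23 at 1 ng/mL final. Supernatant read with Quanti-Blue after 1 h (absorbance 620-655 nm); inhibition normalised to DMSO and unstimulated controls, IC50 from four-parameter fit.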

Data set [1] in a line: Test of stability in plasma, rat. The format is in vitro ADME. The note with it: read-out: Residual rate% at 37°C for 6 h. As to the method: 5. Test of stability in plasma
In this experiment, plasmas of five species, including human, monkey, dog, rat, and mouse, were used to evaluate the stability in plasma of Compound 7.
A plasma sample was prepared at a concentration level of 1000 ng/mL, and dispensed into EP tubes at time points 0 h and 6 h. Acetonitrile solution containing an internal standard was added directly to the 0 h sample; and the 6 h sample was placed at 37°C for the corresponding time, and then added with an acetonitrile solution containing internal standard. The concentration of the test compound in the sample was measured by the LC-MS/MS method, and the residual rate was calculated from the ratio of the peak areas of the test compound to the internal standard in the time point sample and the 0 h sample.
Experimental results: At the concentration level of 1000 ng/mL under the test conditions, the residual rates of the test Compounds were shown in Table 6 below. Table 6. Residual rate% at 37°C for 6 h

`CC(=O)NCCCC[C@@H]1NC(=O)[C@H](Cc2c[nH]c3c(C)cccc23)NC(=O)[C@H]([C@@H](C)O)NC(=O)[C@H](Cc2c[nH]cn2)NC(=O)[C@@H](NC(C)=O)C(C)(C)SSC(C)(C)[C@@H](C(=O)N[C@@H](Cc2ccc(OCCN)c3c2CCC3)C(=O)N[C@@H](Cc2ccc3ccccc3c2)C(=O)NC2(C(=O)N[C@@H](CCC(=O)O)C(=O)N[C@@H](CC(N)=O)C(=O)N[C@@H](Cc3cccnc3)C(=O)N(C)CC(N)=O)CCOCC2)NC1=O` [Compound 7] (Ac-[Pen]HT[Trp(7-Me)]K(Ac)[Pen][Phe(4-OC2H4NH2,2,3-(CH2)3)][2Nal][Thp]EN[3Pal][Sar]-NH2; disulfide 1-6) yielded an IC50 at IL-23R of 6.38 nM. Moreover, the remaining at 6 h, 1000 ng/mL in data set [1] is 98.3%.
